Consider two compounds from patent US20200341000A1, “METHOD OF SCREENING COMPOUNDS FOR TREATING CNS DISORDERS” (SAGE THERAPEUTICS, INC., priority 2017, published 2020).

Test [1] has as its system plasma membrane GABAARs containing the α4 and β3 subunits. The experiment in a line: Biotinylation, surface/total GABAAR subunits in hippocampal slices of WT mice. Type of test: cell-based. The method, then: (§1) Hippocampi were dissected out of acute slices from 8 to 12 week old C57/B16 mice and lysed with phosphate buffer including: 20 mM Tris-HCl, 150 mM NaCl, 5 mM EDTA, 10 mM NaF, 2 mM Na3VO4, 10 mM pyrophosphate, 0.1% SDS and 1% Triton after drug treatment. The β3 subunit was isolated using immunoprecipitation with β3 antibodies, after correction for protein content and the specific activity of labeling. Results were attained by SDS/PAGE followed by autoradiography (Abramian et al., 2010). For biotinylation experiments hippocampi were dissected out of acute slices from 8 to 12 week old C57/B16 mice and incubated in artificial cerebrospinal fluid (ACSF) described above at 30° C. for 1 h for recovery before experimentation. Slices were then placed on ice and incubated for 30 min with 1 mg/mL NHS-SS-biotin (Pierce). Excess biotin was removed by a 50 mM glycine quenching buffer, followed by washing of slices three times in ice-cold ACSF. The tissue was snap frozen on dry ice for 5 min, thawed at 4° C. and lysed. The lysates were solubilized with 2% Triton at 4° C. on a rotating wheel for 1 h. The insoluble material was removed by centrifugation, and 350-500 μg of protein lysate were incubated with NeutrAvidin beads (Pierce) for 18-24 h at 4° C. Bound material was eluted with sample buffer and subjected to SDS/PAGE and then immunoblotted with the indicated antibodies. Blots were then quantified using the CCD-based ChemiDoc XRS ? system. Antibodies against the β3 subunit and the phospho-β3 antibody were generated and verified by the laboratory of S.J.M. (Vien et al., 2015).
Hippocampal slices were treated as outlined above. Treated slices were then subject to biotinylation and lysis, and surface fractions were isolated on immobilized avidin. Surface (S) and total (T) fractions were immunoblotted with α4 and β3 subunit antibodies.
Consistent with the examples above, hippocampal slices from WT and S408/9A mice were treated for 20 min with 100 nM SGE-516 or vehicle (Con) and subjected to biotinylation followed by immunoblotting with β3 and α4 subunit antibodies. The ratio of surface/total (S/T) immunoreactivity was then normalized to levels seen in control (100%).

Test [2] has as its system GABA receptor trafficking. Kind of test: GABA receptor trafficking measured by GABAergic current density (FIG. 14). Type of test: cell-based. Particulars: measured by the GABAergic current density. From the text: As shown in above examples, not all neurosteroids can modulate GABA receptor trafficking.
In test [3] the test system is GABAA receptor β3 subunit S408/9 phosphorylation. The experiment in a line: Immunoblot of β3 S408/9 phosphorylation in hippocampal slices. Particulars: 100 nM, 20 min, acute hippocampal slices. The format is cell-based, mice. The method, then:
as §1
To produce antibodies specific for phosphorylated S443, rabbits were injected with a synthetic peptide corresponding to residues […] of the murine α4 subunit in which the serine residue corresponding to S443 was chemically phosphorylated; […]. Hippocampal slices were treated with vehicle (Con), or SGE-516 for 20 min. Slices were immunoblotted with pS408/9, β3, or actin antibodies. The ratio of pS408/9/β3 immunoreactivity was then normalized to control slices (100%=the line).
Hippocampal slices were treated with 100 nM ALLO or P4 (progesterone), and S408/9 phosphorylation was then determined as detailed above, n=4 slices (FIG. 18D). Hippocampal slices were treated with 100 nM ORG (FIG. 18E). S408/9 phosphorylation was examined using immunoblotting.
For orientation: Immunoblotting shows a protein as a band on a membrane.

Test [4] concerns the target T1, α4β3δ GABAA receptors (Homo sapiens, UniProt O14764+P28472+P48169).
T1 construct: expressed in transfected cells; host or cells: CHO cells (transient transfection, Lipofectamine)
The experiment in a line: Whole-cell patch clamp, potentiation of GABA EC20 currents at recombinant extrasynaptic-type receptors (CHO cells). The format is cell-based. The method, then: Cellular electrophysiology was used to measure the pharmacological properties of ALLO, ganaxolone and SGE-516 in heterologous cell systems. Compounds were tested for their ability to affect GABA mediated currents at a submaximal agonist dose (GABA EC20=2 μM).
LTK cells were stably transfected with the α1β2γ2 subunits of the GABA receptor and CHO cells are transiently transfected with the α4β3γ subunits via the Lipofecatamine method. Cells were passaged at a confluence of about 50-80% and then seeded onto 35 mm sterile culture dishes containing 2 ml culture complete medium without antibiotics or antimycotics. Cells were cultivated at a density that enabled the recording of single cells without visible connections to other cells.
Whole-cell currents were measured with HEKA EPC-10 amplifiers using PatchMaster software. Bath solution for all experiments contained (in mM): NaCl 137, KCl 4, CaCl2 1.8, MgCl2 1, HEPES 10, D-Glucose 10, pH 7.4 with NaOH. Intracellular (pipette) solution contained (in mM): KCl 130, MgCl2 1, Mg-ATP 5, HEPES 10, EGTA 5, pH 7.2 with KOH. During experiments, cells and solutions were maintained at room temperature (19° C.-30° C.). For manual patchclamp recordings, cell culture dishes were placed on the dish holder of the microscope and continuously perfused (1 ml/min) with bath solution. After formation of a Gigaohm seal between the patch electrode and the cell (pipette resistance range: 2.5 MΩ-6.0MΩ; seal resistance range: >1 GΩ) the cell membrane across the pipette tip was ruptured to assure electrical access to the cell interior (whole-cell patch configuration).
Cells were voltage-clamped at a holding potential of −80 mV. GABAA receptors were activated by 2 μM GABA and compounds were sequentially applied at increasing concentrations for 30 s prior to a 2 s application of GABA. GABA and compounds were applied to cells via the Dynaflow perfusion system (Cellectricon, Sweden). Test compounds were dissolved in DMSO to form 10 mM stock solution and serially diluted to 0.01, 0.1, 1, and 10 μM in bath solution. […] All concentrations of test compound were tested on each cell. The relative percentage potentiation was defined as the peak amplitude in response to GABA EC20 in the presence of test compound divided by the peak amplitude in response to GABA EC20 alone, multiplied by 100.
ALLO and ganaxolone are known PAMs of both synaptic and extrasynaptic GABAAR-mediated currents. […] The α1β2γ2 or α4β3δ subunit combinations were chosen as representatives of typical synaptic and extrasynaptic GABAA receptors respectively.
For orientation: The patch-clamp technique gives a direct electrical read-out from membranes.

Setting [5] is: relative percentage potentiation of GABA EC20 peak current, n = 3.

Where two headings read alike, the source gives them in different places.

T1 sequence (P48169 36-554): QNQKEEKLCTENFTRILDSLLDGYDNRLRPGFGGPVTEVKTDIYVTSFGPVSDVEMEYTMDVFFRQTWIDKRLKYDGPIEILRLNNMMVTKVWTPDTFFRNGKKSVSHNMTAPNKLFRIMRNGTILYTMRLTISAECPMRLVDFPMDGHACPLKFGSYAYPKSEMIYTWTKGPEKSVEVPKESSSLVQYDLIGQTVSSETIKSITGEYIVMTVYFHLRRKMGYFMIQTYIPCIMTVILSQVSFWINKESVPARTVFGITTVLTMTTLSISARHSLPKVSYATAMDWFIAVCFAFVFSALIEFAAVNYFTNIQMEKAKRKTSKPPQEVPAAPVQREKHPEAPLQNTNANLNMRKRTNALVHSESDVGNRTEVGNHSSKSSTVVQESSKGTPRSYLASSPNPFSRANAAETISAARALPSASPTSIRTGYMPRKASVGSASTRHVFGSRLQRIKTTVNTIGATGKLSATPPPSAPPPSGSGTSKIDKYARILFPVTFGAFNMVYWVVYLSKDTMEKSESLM
T1 sequence (P28472 26-473): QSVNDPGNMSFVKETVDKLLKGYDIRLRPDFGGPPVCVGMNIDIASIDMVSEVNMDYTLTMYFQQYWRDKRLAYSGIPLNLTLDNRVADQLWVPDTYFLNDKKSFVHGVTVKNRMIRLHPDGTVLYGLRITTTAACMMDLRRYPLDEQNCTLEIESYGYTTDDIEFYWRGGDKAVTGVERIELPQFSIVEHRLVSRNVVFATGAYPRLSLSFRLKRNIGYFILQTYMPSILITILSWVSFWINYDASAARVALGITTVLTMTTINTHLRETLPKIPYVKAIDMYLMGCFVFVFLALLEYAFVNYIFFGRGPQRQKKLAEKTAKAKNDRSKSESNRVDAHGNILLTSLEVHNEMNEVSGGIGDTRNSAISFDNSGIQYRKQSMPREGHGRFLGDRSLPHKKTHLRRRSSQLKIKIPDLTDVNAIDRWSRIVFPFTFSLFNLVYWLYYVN
T1 sequence (O14764 25-452): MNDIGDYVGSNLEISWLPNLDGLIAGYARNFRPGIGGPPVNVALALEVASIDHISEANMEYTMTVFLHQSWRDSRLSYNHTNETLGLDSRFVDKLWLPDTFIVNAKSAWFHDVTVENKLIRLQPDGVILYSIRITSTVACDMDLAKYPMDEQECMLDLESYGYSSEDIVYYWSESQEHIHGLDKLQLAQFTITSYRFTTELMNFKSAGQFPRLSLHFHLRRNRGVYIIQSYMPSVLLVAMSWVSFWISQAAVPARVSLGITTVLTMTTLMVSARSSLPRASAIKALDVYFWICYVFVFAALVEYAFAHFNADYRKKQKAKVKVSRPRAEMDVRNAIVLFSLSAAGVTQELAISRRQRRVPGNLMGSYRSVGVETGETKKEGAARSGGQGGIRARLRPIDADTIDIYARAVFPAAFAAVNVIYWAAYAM

In the case of `C[C@@]1(O)CC[C@H]2[C@H](CC[C@@H]3[C@@H]2CC[C@]2(C)[C@@H](C(=O)Cn4nccn4)CC[C@@H]32)C1` [SGE-516], the “GABAA-β3-containing receptors at the plasma membrane (surface β3/T-β3)” value in test [1] (100 nM, 20 min) is on record as “increases”. The “plasma membrane levels of GABAARs containing α4 and β3 subunits, S/T normalized to control (100%)” value in test [1] (100 nM, 20 min, WT mice) is on record as 175-185%. Also, the “plasma membrane accumulation of the α4 and β3 subunits” value in test [1] (hippocampal slices, biotinylation) is on record as “increased”. Besides, the “modulation of GABA receptor trafficking” value in test [2] was “modulated GABA receptor trafficking”. For the same compound, the “β3 S408/409 phosphorylation (p-β3/T-β3)” value in test [3] was “increases”. The “pEC50 ± S.E.M., α4β3δ” value in test [4] (GABA EC20 (2 μM), n = 3) worked out at 6.7 ± 0.1. Besides, the EC50 (usually the concentration that produces a half-maximal response) in test [4] (GABA EC20 (2 μM), n = 3, read-out: EC50, potentiation of GABA current, α4β3δ) came out at 193 nM. In test [4] (setting [5]), the “Emax ± S.E.M., α4β3δ” value was determined as 505 ± 19%.
Turning to `CC(=O)[C@H]1CC[C@H]2[C@@H]3CC[C@H]4C[C@H](O)CC[C@]4(C)[C@H]3CC[C@]12C` [ALLO, Allopregnanolone], the “GABAA-β3-containing receptors at the plasma membrane (surface β3/T-β3)” value in test [1] (100 nM, 20 min) was “increases”. Also, in test [2], the “modulation of GABA receptor trafficking” value is recorded as “modulated GABA receptor trafficking”. The “β3 S408/409 phosphorylation (p-β3/T-β3)” value in test [3] is “increases”. In test [4], the concentration for a half-maximal effect (EC50) stood at 57 nM. The maximal effect (Emax) (commonly the size of the effect at its maximum, as opposed to the concentration needed) in test [4] (CHO, relative percentage potentiation of GABA EC20 peak current, n = 3, read-out: Emax ± S.E.M., α4β3δ) was determined as 426%. The “Emax ± S.E.M., α4β3δ” value in test [4] (setting [5]) worked out at 426 ± 42%.
